# Measurements: US11331375B2, “Compositions and methods for regulating leukocyte adhesion” (University of Virginia Patent Foundation, priority 2015, dated 2022)
# Key:
# [1] = system: HUVEC; assay: In vitro ATP release assay (luciferin:luciferase), HUVEC; format: cell-based, human
# Method: (§1) In vitro Human arterial and venous ECs were seeded in 24-well plates pre-coated with 0.2% gelatin and grown to confluency. On the day of experiment, the media was removed from each well and cells were carefully washed twice with warm serum free basal EC medium supplemented with 1% BSA. Cells were then incubated in 300 μL of fresh basal EC medium supplemented with 1% BSA for 30 minutes at 37° C. to allow degradation of extracellular ATP released due to mechanical stimulation during washes. Endogenous ecto-nucleotidases were inhibited by incubating EC monolayers with 300 μM ARL 67156 (Tocris) for 30 minutes at 37° C. Cells were then stimulated with recombinant human TNFα (R&D Systems). For dose response experiments, ECs were incubated with 0.1, 1, 5, 10, 50, or 100 ng/mL recombinant TNFα for 30 minutes at 37° C. For time-course experiments, ECs were stimulated with 10 ng/mL recombinant TNFα for different time points up to 1 hour. In experiments where pharmacological inhibitors were employed, ECs were incubated with antagonists in parallel with ARL 67156 for 30 minutes. To inhibit TNFR1, ECs were incubated with the peptide antagonist of the receptor WP9QY (10 μM; Anaspec). […] Cx hemichannels were inhibited with lanthanum (La^3+; 100 μM; Sigma) and Panx1 channels were blocked with carbenoxolone (CBX; 50 μM; Sigma) and the inhibitory peptide ^10panx1 (200 μM; Genscript). […] The role of caspase activation was assessed by inhibition with the pan-caspase blocker Q-VD-OPh (100 μM; Sigma). Following stimulation with TNFα or vehicle, 150 μL of the cell supernatant was collected and immediately placed into pre-chilled 1.5 mL Eppendorf tubes on ice. All samples were centrifuged at 10,000×g for 5 minutes and 50 μL of each sample was transferred to a white, opaque 96-well plate. Using a FluoStar Omega luminometer, 50 μL of luciferin:luciferase reagent (ATP bioluminescence assay kit HSII; Roche) was injected into each well and luminescence was recorded following a 5s orbital mix. ATP concentration in each sample was calculated from a standard curve for all experiments. Data are presented as a % change in ATP release from baseline (i.e. unstimulated cells) and expressed as mean±SEM (n=5 independent experiments with triplicate measurements).
# [2] = system: HAoEC; assay: In vitro ATP release assay, HAoEC; format: cell-based, human
# Method: (§2) In vitro Human arterial and venous ECs were seeded in 24-well plates pre-coated with 0.2% gelatin and grown to confluency. On the day of experiment, the media was removed from each well and cells were carefully washed twice with warm serum free basal EC medium supplemented with 1% BSA. Cells were then incubated in 300 μL of fresh basal EC medium supplemented with 1% BSA for 30 minutes at 37° C. to allow degradation of extracellular ATP released due to mechanical stimulation during washes. Endogenous ecto-nucleotidases were inhibited by incubating EC monolayers with 300 μM ARL 67156 (Tocris) for 30 minutes at 37° C. Cells were then stimulated with recombinant human TNFα (R&D Systems). For dose response experiments, ECs were incubated with 0.1, 1, 5, 10, 50, or 100 ng/mL recombinant TNFα for 30 minutes at 37° C. […] The role of caspase activation was assessed by inhibition with the pan-caspase blocker Q-VD-OPh (100 μM; Sigma). […] Using a FluoStar Omega luminometer, 50 μL of luciferin:luciferase reagent (ATP bioluminescence assay kit HSII; Roche) was injected into each well and luminescence was recorded following a 5s orbital mix. ATP concentration in each sample was calculated from a standard curve for all experiments. Data are presented as a % change in ATP release from baseline (i.e. unstimulated cells) and expressed as mean±SEM (n=5 independent experiments with triplicate measurements).
# [3] = system: Src Family Kinases (SFK); assay: Western blot of SFK activation (pY416SFK) in venous ECs; format: cell-based, human; conditions: HUVEC and HSaVEC; acute (5 minute) TNFα
# Method: Following stimulation with TNFα (in vitro: 10 ng/mL; ex vivo: 50 ng/mL), confluent endothelial cell monolayers or isolated mesenteric venules were homogenized in ice cold Triton extraction buffer (50 mM Tris-HCL, 150 mM NaCl , 5 mM EDTA, 1% deoxycholate, 1% NP-40 and 1% Triton-X100 in phosphate buffered saline and pH adjusted to 7.4) containing protease and phosphatase inhibitors. Cell/Tissue lysates were incubated with rotation at 4° C. for 20 minutes to solubilize proteins, followed by centrifugation for 5 minutes at 13,000× g to pellet cell debris. Protein concentration was quantified using the BCA method. 15-20 μg of total protein was subjected to SDS gel electrophoresis using 4-12% Bis-Tris gels (Invitrogen) and transferred to nitrocellulose membranes for immunoblotting. Membranes were blocked for 1 hr at room temperature with LiCOR blocking solution, then incubated overnight at 4° C. with primary antibodies against pY416SFKs, (BD Biosciences; 1:1000) pY198Panx1 (Alpha Diagnostic Intl (ADI); 1:1000) and GAPDH (Sigma; 1:10,000) or an antibody against the intracellular loop of Panx1 (Panx1-IL) (ADI; 1:1000) (normalization controls). Membranes were then washed and incubated with LiCOR secondary antibodies (1:10,000) and visualized and quantitated using LiCOR Odyssey. To inhibit SFK activity, EC monolayers were incubated with the SFK inhibitor PP2 (Tocris; 10 μM). […] To show specificity for the phosphorylated form of SFKs and Panx1, cell lysates were incubated with alkaline phosphatase for 1 hour at 37° C. Western blot images have been cropped for presentation. Uncropped Western blots can be found in FIGS. 12-13. Data are expressed as mean±SEM (n=3 independent experiments).
# [4] = system: isolated murine mesenteric venules; assay: Ex vivo vascular perfusion ATP release assay, mesenteric venules; format: cell-based, mouse; conditions: lumenal perfusion
# Method: For isolated blood vessel experiments, 2nd order venules or arterioles were dissected from the mouse mesentery circulation and cannulated on glass micropipettes to access the vessel lumen. […] Vessels were then perfused with MOPS PSS containing 300 μM ARL 67156 +/− pharmacological inhibitors and incubated for an additional 20 minutes prior to perfusion with MOPS PSS containing recombinant murine TNFα (R&D Systems). Aliquots of the lumenal perfusate were collected every 5 minutes for a 25-minute period and the ATP concentration was quantified by bioluminescence as described above. Data are expressed as mean±SEM (n=4 independent experiments).
# [5] = system: isolated mesenteric venules; assay: LDH release assay in perfused venules; format: cell-based, mouse; conditions: perfusion of TNFα
# Method: Isolated mesenteric venules were cannulated and perfused with recombinant mouse TNFα for 20 minutes followed by lysis buffer. Perfusate samples were collected as described above and LDH activity was assayed with the Cytotoxicity Detection Kit Plus (Roche) according to the manufacturer's protocol as an output for cell death. Data are expressed as mean±SEM (n=3 independent experiments).
# [6] = system: Panx1; assay: Western blot of pY198Panx1 in isolated mesenteric venules; format: cell-based, mouse; conditions: mesenteric venules perfused with TNFα 50 ng/mL 30 minutes
# Method: Following stimulation with TNFα (in vitro: 10 ng/mL; ex vivo: 50 ng/mL), confluent endothelial cell monolayers or isolated mesenteric venules were homogenized in ice cold Triton extraction buffer (50 mM Tris-HCL, 150 mM NaCl , 5 mM EDTA, 1% deoxycholate, 1% NP-40 and 1% Triton-X100 in phosphate buffered saline and pH adjusted to 7.4) containing protease and phosphatase inhibitors. Cell/Tissue lysates were incubated with rotation at 4° C. for 20 minutes to solubilize proteins, followed by centrifugation for 5 minutes at 13,000× g to pellet cell debris. Protein concentration was quantified using the BCA method. 15-20 μg of total protein was subjected to SDS gel electrophoresis using 4-12% Bis-Tris gels (Invitrogen) and transferred to nitrocellulose membranes for immunoblotting. Membranes were blocked for 1 hr at room temperature with LiCOR blocking solution, then incubated overnight at 4° C. with primary antibodies against pY416SFKs, (BD Biosciences; 1:1000) pY198Panx1 (Alpha Diagnostic Intl (ADI); 1:1000) and GAPDH (Sigma; 1:10,000) or an antibody against the intracellular loop of Panx1 (Panx1-IL) (ADI; 1:1000) (normalization controls). Membranes were then washed and incubated with LiCOR secondary antibodies (1:10,000) and visualized and quantitated using LiCOR Odyssey. […] Data are expressed as mean±SEM (n=3 independent experiments).
# [7] = system: HSaVEC; assay: In vitro ATP release assay (luciferin:luciferase), HSaVEC; format: cell-based, human; conditions: HSaVEC monolayers
# Method: as §1
# [8] = system: HCoAEC; assay: In vitro ATP release assay, HCoAEC; format: cell-based, human
# Method: as §2
substance,measurement,setting,value
TNFα,TNFα dose with significant ATP release response,"[1]; EC ATP release, range tested 0.1-100 ng/mL",≥ 10 ng/mL
same,ATP release on cytokine stimulation,[1]; HUVEC monolayers,significant increase
same,TNFα concentration giving maximal accumulation of extracellular ATP,[1]; cultured venous ECs,10 ng/mL
same,time to maximal accumulation of extracellular ATP,"[1]; cultured venous ECs, 10 ng/mL TNFα",approximately 10 minutes
same,ATP release on cytokine stimulation,[2],failed to release ATP
same,Y416 phosphorylation of SFK,[3],significant increase
same,ATP accumulation in the perfusate on cytokine perfusion,[4],time- and dose-dependent increase
same,cell death (LDH accumulation in perfusates),[5],did not induce cell death
same,phosphorylation of Panx1,[6],promoted phosphorylation of Panx1
same,ATP release on cytokine stimulation,[7],significant increase
same,ATP release on cytokine stimulation,[8],failed to release ATP
